The results in this text go back to the Bradley open melting point set (2014).

The structures appear in SMILES notation.

With `O=c1ccn([C@@H]2O[C@@H](CO)[C@H](O)[C@H]2O)c(=O)[nH]1` [Uridine], the melting point (as a rule, the temperature of the solid-liquid transition) was 165 °C.
To `Cc1ccc(C(=O)OC2CC(C#N)OC2OC(=O)c2ccc(C)cc2)cc1` (stereo unspecified) belongs 111 °C; to `NC1=NCC(c2ccccc2)O1` (stereo unspecified) [Aminorex], 137 °C; to `CN(C)c1ccc(N=C=S)cc1` [4-dimethylaminophenyl isothiocyanate], 67 °C.
To `ClCCl` [dichloromethane] belongs -95 °C.
To `C=CCCCCCCCC` [1-decene] belongs -66 °C.
The compound `S=C=Nc1cccc2ccccc12` [1-Isothiocyanatonaphthalene] had a melting point of 58 °C.
Under `c1ccc2cc3cc4ccccc4cc3cc2c1` [Tetracene] stands 350 °C; under `COc1cccc2c1C(=O)C2` [5-methoxybicyclo[4.2.0]octa-1,3,5-trien-7-one], 35 °C.
To `[O-][n+]1cccc(F)c1` [3-fluoropyridine n-oxide] belongs 67 °C.
To `C[C@]12CC[C@H]3[C@@H](CCC4=CC(=O)CC[C@@]43C)[C@@H]1CC[C@@H]2C(=O)CO` [deoxycorticosterone] belongs 142 °C.
Turning to `CCCCCCCC(C)O` (stereo unspecified) [2-nonanol], the melting point was -35 °C.
As for `NCCNc1ccc([N+](=O)[O-])cn1` [N-(5-nitro-2-pyridyl)-1,2-ethanediamine], the melting point worked out at 127 °C.
Take `N#Cc1cc(Br)ccc1I` [5-bromo-2-iodobenzonitrile]: the melting point was found to be 121 °C.
Under `CCCCOCCOCCO` [diethylene glycol mono-n-butyl ether] stands -68 °C; under `CCCCC(C)CC` (stereo unspecified) [3-methylheptane], -121 °C; under `CC(=O)CCC(C)=O` [acetonylacetone], -6 °C.
To `O=C(O)c1ccc([N+](=O)[O-])cc1` [4-nitrobenzoic acid] belongs 242 °C; to `COC1=CC(=O)C[C@@H](C)[C@]12Oc1c(Cl)c(OC)cc(OC)c1C2=O` [Griseofulvin], 220 °C.
In the case of `CC(O)CN(C)C` (stereo unspecified) [1-dimethylamino-2-propanol], the melting point is -85 °C.
To `CCC=O` [propanal] belongs -80 °C; to `COC(=O)c1ccncc1` [methyl isonicotinate], 8 °C; to `CCCCNCCCC` [N-Butylbutan-1-amine], -60 °C.
Under `CCOC(=O)/C=C(/C)N` [ethyl 3-aminocrotonate] stands 32 °C.
Under `CC=O` [acetaldehyde] stands -125 °C; under `CC1=C(C(=O)O)N2C(=O)[C@@H](NC(=O)[C@H](N)C3=CCC=CC3)[C@H]2SC1` [Cefradine], 140 °C; under `O=C(O)CCCCCCCCCCCCCCC(=O)O` [Hexadecanedioic acid], 125 °C.
Consider `Cc1cc(O)cc(C)c1Cl` [4-chloro-3,5-dimethylphenol], for which the melting point came to 115 °C.
`O=Cc1ccc(N2CCCC2)cc1` [4-(1-pyrrolidinyl)benzaldehyde] came in with a melting point of 84 °C.
`Nc1ccc(S(=O)(=O)Nc2ccccn2)cc1` [4-Amino-N-(pyridin-2-yl)benzenesulfonamide]: the melting point came out at 192 °C.
To `COC1=C(OC)/C(=C/C=O)OC1=O` [(2Z)-(3,4-dimethoxy-5-oxofuran-2(5H)-ylidene)ethanal] belongs 61 °C; to `CC(=O)Nc1ccccc1` [N-Phenylacetamide], 115 °C; to `COC1=CC(=O)C[C@@H](C)[C@]12Oc1c(Cl)c(OC)cc(OC)c1C2=O` [griseofulvin], 219 °C.
Regarding `Nc1ccc(N)cc1` [1,4-phenylenediamine], the melting point came out at 142 °C.
Under `CC(Br)C(C)(C)Br` (stereo unspecified) [2,3-dibromo-2-methylbutane] stands 15 °C; under `COc1ccc(OC)c(C(C)=O)c1` [2,5-dimethoxyacetophenone], 20 °C; under `Nn1cnnc1` [4-amino-1,2,4-triazole], 86 °C.
To `CCCCCc1ccc(-c2ccccc2)cc1` [4-n-pentylbiphenyl] belongs 10 °C.
Under `Cc1ccc(C(C)(C)C)cc1` [1-methyl-4-tert-butylbenzene] stands -53 °C; under `CCc1ccccc1B(O)O` [2-ethylbenzeneboronic acid], 97 °C.
The compound `CC(C)[N+](=O)[O-]` [2-Nitropropane] displayed a melting point of -93 °C.
Under `CC(C)CCCC(C)C1CCC2C3CC(O)C4(O)CC(O)CCC4(C)C3CCC12C` (stereo unspecified) stands 238 °C.
Under `C1CCCCC1` [Cyclohexane] stands 7 °C; under `Nc1ccccc1-c1ccccc1` [Biphenyl-2-amine], 51.5 °C; under `O=C(O)c1ccc(C(=O)C(F)(F)F)cc1` [4-(trifluoroacetyl)benzoic acid], 178 °C.
Turning to `COc1cc(C(=O)O)cc(O)c1OC` [5-hydroxy-3,4-dimethoxybenzoic acid], the melting point came to 196 °C.
Under `CCCCc1ccc(B(O)O)cc1` [4-n-butylbenzeneboronic acid] stands 105 °C; under `CCOc1ccc2ccccc2c1C(=O)O` [2-ethoxy-1-naphthoic acid], 144 °C; under `C=CCC1(CC(C)C)C(=O)NC(=O)NC1=O` [BUTALBITAL], 138 °C.
As to `O=c1on(-c2ccccc2)c(Br)c1-c1ccccc1` [3-bromo-2,4-diphenylisoxazol-5(2H)-one], the melting point amounted to 166 °C.
`O=C1OC2(OC=C(c3ccccc3)C2=O)c2ccccc21` (stereo unspecified) [fluorescamine] showed a melting point of 157 °C.
Under `CO[C@@]12[C@H](COC(N)=O)C3=C(C(=O)C(C)=C(N)C3=O)N1C[C@@H]1N[C@@H]12` [mitomycin c] stands 360 °C; under `COc1ccc(OCC(=O)O)cc1` [4-methoxyphenoxyacetic acid], 111 °C.
As for `CN1CCC2=C(C1)C(c1ccccc1)c1ccccc12` (stereo unspecified) [phenindamine], the melting point was found to be 91 °C.
To `Nc1ccc(I)cc1Cl` [2-chloro-4-iodoaniline] belongs 70 °C; to `O=c1cc[nH]c(=O)[nH]1` [Uracil], 330 °C.
To `C[C@H](NC(=O)OC(C)(C)C)C(=O)O` [N-boc-L-alanine] belongs 82 °C; to `Cc1ccccc1` [Toluene], -93 °C; to `O=C(c1ccccc1)c1cc(Br)ccc1O` [5-bromo-2-hydroxybenzophenone], 110 °C.
To `Cl[C@H]1[C@H](Cl)[C@@H](Cl)[C@H](Cl)[C@H](Cl)[C@H]1Cl` [a-hexachlorocyclohexane] belongs 159 °C.
As to `C[C@]12C=CC(=O)C=C1CC[C@@H]1[C@@H]2[C@@H](O)C[C@@]2(C)[C@H]1CC[C@]2(O)C(=O)CO` [Prednisolone], the melting point was 240 °C.
Under `OC1COC2C(O)COC12` (stereo unspecified) [1,4:3,6-dianhydrohexitol] stands 61 °C; under `Cc1ccccc1` [toluene], -93 °C; under `CCOC(=O)/C(=N/Nc1cc(Cl)ccc1Cl)C(=O)C(F)(F)F`, 147 °C.
Under `O=S(c1ccccc1)c1ccccc1` [diphenyl sulfoxide] stands 71 °C.
For `Nc1cccc(F)c1C(=O)O` [2-amino-6-fluorobenzoic acid], the melting point worked out at 166 °C.
To `NC(=O)c1ccc(F)c(F)c1` [3,4-difluorobenzamide] belongs 133 °C; to `Nc1ccc(O)c2c1C(=O)c1ccccc1C2=O` [1-amino-4-hydroxyanthraquinone], 208 °C; to `ClC1C(Cl)C(Cl)C(Cl)C(Cl)C1Cl` (stereo unspecified) [Lindane], 114 °C.
To `Oc1cccc(I)c1` [m-iodophenol] belongs 43 °C; to `Cc1cc(B(O)O)ccc1F` [4-fluoro-3-methylbenzeneboronic acid], 210 °C.
Compound `O=CNC(c1ccccc1)c1ccccc1` [N-(Diphenylmethyl)formamide] showed a melting point of 136 °C.
In turn, `O=C(O)c1cccnc1` [Nicotinic acid] registered a melting point of 237 °C.
On to `Fc1ccc2cc[nH]c2c1` [6-fluoroindole], for which the melting point is 76 °C.
Under `Cc1ccc(Cl)c(N)c1` [2-chloro-5-methylaniline] stands 31 °C; under `CCCCCCCCCCCC[N+](C)(C)[O-]` [Dodecyl(dimethyl)amine oxide], 132 °C.
`C#CCCCCC` [1-heptyne] had a melting point of -81 °C.
Under `C[C@]12CCC(=O)C=C1CC[C@@H]1[C@@H]2C(=O)C[C@@]2(C)[C@H]1CC[C@]2(O)C(=O)CO` [Cortisone] stands 225 °C.
Under `CC1(C)[C@H]2CC[C@]1(C)C(=O)C2` [Camphor] stands 180 °C; under `Cc1cc(C)cc(N)c1` [3,5-dimethylaniline], 10 °C.
Under `c1ccc2c(c1)Cc1ccccc1O2` [9H-Xanthene] stands 101 °C; under `CC(=O)Oc1ccccc1C(=O)O` [Acetylsalicylic acid], 135 °C; under `Oc1cccc(Nc2ccccc2)c1` [3-Anilinophenol], 81.5 °C.
On to `CCN(C(C)C)C(C)C` [N-ethyldiisopropylamine], for which the melting point is -46 °C.
To `CN1N=C(C(C)(C)C)CC1=O` [3-tert-butyl-1-methyl-2-pyrazolin-5-one] belongs 149 °C; to `NC(=O)C[C@H](N)C(=O)O` [L-Asparagine], 235 °C; to `CS(=O)(=O)CCO` [2-(methylsulfonyl)ethanol], 29 °C.
Under `NNc1c(F)c(F)c(F)c(F)c1F` [pentafluorophenylhydrazine] stands 76 °C; under `C=Cc1cccc(B(O)O)c1` [3-vinylbenzeneboronic acid], 128 °C; under `COc1ccccc1-c1nnn[nH]1` [5-(2-methoxyphenyl)-1h-tetrazole], 155 °C.
Under `Cc1c(C)c(C)c(CCl)c(C)c1C` [2,3,4,5,6-pentamethylbenzyl chloride] stands 83 °C.
